Row | SMILES | melting point
1 | O=C(CCc1ccccc1)N[C@H](Cc1ccc(C(F)(F)F)cc1)[C@@H](O)c1cccc(F)c1 (racemic) [Example 178, N-((1RS,2SR)-2-(3-fluorophenyl)-2-hydroxy-1-((4-(trifluoromethyl)phenyl)methyl)ethyl)-3-phenylpropanamide] | 151 to 152 °C
2 | O=C(N[C@H](Cc1ccc(C(F)(F)F)cc1)[C@@H](O)c1ccccc1F)c1ccc(F)c2ccccc12 (racemic) [Example 179, 4-fluoro-N-((1RS,2SR)-2-(2-fluorophenyl)-2-hydroxy-1-((4-(trifluoromethyl)phenyl)methyl)ethyl)-1-naphthalenecarboxamide] | 190 to 191 °C
3 | O=C(CCc1ccccc1)N[C@H](Cc1ccc(C(F)(F)F)cc1)[C@@H](O)c1ccccc1F (racemic) [Example 180, N-((1RS,2SR)-2-(2-fluorophenyl)-2-hydroxy-1-((4-(trifluoromethyl)phenyl)methyl)ethyl)-3-phenylpropanamide] | 124 to 125 °C
4 | O=C(N[C@H](Cc1ccc(C(F)(F)F)cc1)[C@@H](O)c1ccc(F)cc1F)c1ccc(F)c2ccccc12 (racemic) [Example 181, N-((1RS,2SR)-2-(2,4-difluorophenyl)-2-hydroxy-1-((4-(trifluoromethyl)phenyl)methyl)ethyl)-4-fluoro-1-naphthalenecarboxamide] | 194 to 195 °C
5 | O=C(CCc1ccccc1)N[C@H](Cc1ccc(C(F)(F)F)cc1)[C@@H](O)c1ccc(F)cc1F (racemic) [Example 182, N-((1RS,2SR)-2-(2,4-difluorophenyl)-2-hydroxy-1-((4-(trifluoromethyl)phenyl)methyl)ethyl)-3-phenylpropanamide] | 126 to 127 °C
6 | O=C(N[C@H](Cc1ccc(C(F)(F)F)cc1)[C@@H](O)c1ccc(F)c(F)c1)c1ccc(F)c2ccccc12 (racemic) [Example 183, N-((1RS,2SR)-2-(3,4-difluorophenyl)-2-hydroxy-1-((4-(trifluoromethyl)phenyl)methyl)ethyl)-4-fluoro-1-naphthalenecarboxamide] | 197 to 198 °C
7 | O=C(CCc1ccccc1)N[C@H](Cc1ccc(C(F)(F)F)cc1)[C@@H](O)c1ccc(F)c(F)c1 (racemic) [Example 184, N-((1RS,2SR)-2-(3,4-difluorophenyl)-2-hydroxy-1-((4-(trifluoromethyl)phenyl)methyl)ethyl)-3-phenylpropanamide] | 114 to 115 °C
8 | O=C(N[C@H](Cc1ccc(C(F)(F)F)cc1)[C@@H](O)c1cccc2ccccc12)c1cccc2ccccc12 (racemic) [Example 185, N-((1RS,2SR)-2-hydroxy-2-(1-naphthalenyl)-1-((4-(trifluoromethyl)phenyl)methyl)ethyl)-1-naphthalenecarboxamide] | 217 to 218 °C
9 | O=C(N[C@H](Cc1ccc(C(F)(F)F)cc1)[C@@H](O)c1cccc2ccccc12)c1ccc(F)c2ccccc12 (racemic) [Example 186, 4-fluoro-N-((1RS,2SR)-2-hydroxy-2-(1-naphthalenyl)-1-((4-(trifluoromethyl)phenyl)methyl)ethyl)-1-naphthalenecarboxamide] | 195 to 196 °C
10 | O=C(N[C@H](Cc1ccc(C(F)(F)F)cc1)[C@@H](O)c1cccc2ccccc12)c1ccc2ccccc2c1 (racemic) [Example 187, N-((1RS,2SR)-2-hydroxy-2-(1-naphthalenyl)-1-((4-(trifluoromethyl)phenyl)methyl)ethyl)-2-naphthalenecarboxamide] | 251 to 252 °C
11 | O=C(N[C@H](Cc1ccc(C(F)(F)F)cc1)[C@@H](O)c1cccc2ccccc12)c1ccc(F)cc1 (racemic) [Example 188, 4-fluoro-N-((1RS,2SR)-2-hydroxy-2-(1-naphthalenyl)-1-((4-(trifluoromethyl)phenyl)methyl)ethyl)benzamide] | 194 to 195 °C
12 | O=C(N[C@H](Cc1ccc(C(F)(F)F)cc1)[C@@H](O)c1cccc2ccccc12)c1ccc(C(F)(F)F)cc1 (racemic) [Example 189, N-((1RS,2SR)-2-hydroxy-2-(1-naphthalenyl)-1-((4-(trifluoromethyl)phenyl)methyl)ethyl)-4-(trifluoromethyl)benzamide] | 232 to 233 °C
13 | O=C(N[C@H](Cc1ccc(C(F)(F)F)cc1)[C@@H](O)c1cccc2ccccc12)C1CCCCC1 (racemic) [Example 190, N-((1RS,2SR)-2-hydroxy-2-(1-naphthalenyl)-1-((4-(trifluoromethyl)phenyl)methyl)ethyl)cyclohexanecarboxamide] | 156 to 157 °C
14 | O=C(CCCc1cccs1)N[C@H](Cc1ccc(C(F)(F)F)cc1)[C@@H](O)c1cccc2ccccc12 (racemic) [Example 191, N-((1RS,2SR)-2-hydroxy-2-(1-naphthalenyl)-1-((4-(trifluoromethyl)phenyl)methyl)ethyl)-4-(2-thienyl)butyramide] | 139 to 140 °C
15 | COc1ccc([C@H](O)[C@@H](Cc2ccc(C(F)(F)F)cc2)NC(=O)c2ccc(F)c3ccccc23)cc1 (racemic) [Example 192, 4-fluoro-N-((1RS,2SR)-2-hydroxy-2-(4-methoxyphenyl)-1-((4-(trifluoromethyl)phenyl)methyl)ethyl)-1-naphthalenecarboxamide] | 184 to 185 °C
16 | COc1ccc([C@H](O)[C@@H](Cc2ccc(C(F)(F)F)cc2)NC(=O)CCc2ccccc2)cc1 (racemic) [Example 193, N-((1RS,2SR)-2-hydroxy-2-(4-methoxyphenyl)-1-((4-(trifluoromethyl)phenyl)methyl)ethyl)-3-phenylpropanamide] | 116 to 117 °C
17 | O=C(N[C@H](Cc1ccc(C(F)(F)F)cc1)[C@@H](O)c1ccc(Cl)cc1)c1ccc(F)c2ccccc12 (racemic) [Example 194, N-[(1RS,2SR)-2-(4-chlorophenyl)-2-hydroxy-1-[4-(trifluoromethyl)benzyl]ethyl]-4-fluoronaphthalene-1-carboxamide] | 203 to 204 °C
18 | O=C(N[C@H](Cc1ccc(C(F)(F)F)cc1)[C@@H](O)c1ccoc1)c1ccc(F)c2ccccc12 (racemic) [Example 195, 4-fluoro-N-((1RS,2SR)-2-(3-furanyl)-2-hydroxy-1-((4-(trifluoromethyl)phenyl)methyl)ethyl)-1-naphthalenecarboxamide] | 206 to 207 °C
19 | O=C(CCc1ccccc1)N[C@H](Cc1ccc(C(F)(F)F)cc1)[C@@H](O)c1ccoc1 (racemic) [Example 196, N-((1RS,2SR)-2-(3-furanyl)-2-hydroxy-1-((4-(trifluoromethyl)phenyl)methyl)ethyl)-3-phenylpropanamide] | 134 to 135 °C
20 | O=C(N[C@H](Cc1ccc(C(F)(F)F)cc1)[C@@H](O)c1ccc(Cl)s1)c1ccc(F)c2ccccc12 (racemic) [Example 197, N-[(1RS,2RS)-2-(5-chloro-2-thienyl)-2-hydroxy-1-[4-(trifluoromethyl)benzyl]ethyl]-4-fluoronaphthalene-1-carboxamide] | 201 to 203 °C
21 | O=C(N[C@H](Cc1ccc(C(F)(F)F)cc1)[C@@H](O)c1ccc(Cl)s1)c1cccc2c1C=CCCC2 (racemic) [Example 198, N-[(1RS,2RS)-2-(5-chloro-2-thienyl)-2-hydroxy-1-[4-(trifluoromethyl)benzyl]ethyl]-6,7-dihydro-5H-benzo[a]cycloheptene-1-carboxamide] | 184 to 185 °C
22 | O=C(N[C@H](Cc1ccc(C(F)(F)F)cc1)[C@@H](O)c1ccc(Cl)nc1)c1ccc(F)c2ccccc12 (racemic) [Example 202, N-((1RS,2SR)-2-(6-chloro-3-pyridyl)-2-hydroxy-1-((4-(trifluoromethyl)phenyl)methyl)ethyl)-4-fluoro-1-naphthalenecarboxamide] | 188 to 189 °C
23 | O=C(CCc1ccccc1)N[C@H](Cc1ccc(C(F)(F)F)cc1)[C@@H](O)c1ccc(Cl)nc1 (racemic) [Example 203, N-((1RS,2SR)-2-(6-chloro-3-pyridyl)-2-hydroxy-1-((4-(trifluoromethyl)phenyl)methyl)ethyl)-3-phenylpropanamide] | 149 to 150 °C
24 | O=C(N[C@H](Cc1ccc(C(F)(F)F)cc1)[C@@H](O)c1cccc(Oc2ccccc2)c1)c1ccc(F)c2ccccc12 (racemic) [Example 207, N-((1RS,2SR)-2-hydroxy-2-(3-phenoxyphenyl)-1-((4-(trifluoromethyl)phenyl)methyl)ethyl)-4-fluoro-1-naphthalenecarboxamide] | 184 to 185 °C
25 | O=C(CCc1ccccc1)N[C@H](Cc1ccc(C(F)(F)F)cc1)[C@@H](O)c1cccc(Oc2ccccc2)c1 (racemic) [Example 208, N-((1RS,2SR)-2-hydroxy-2-(3-phenoxyphenyl)-1-((4-(trifluoromethyl)phenyl)methyl)ethyl)-3-phenylpropanamide] | 134 to 135 °C
26 | O=C(N[C@H](Cc1ccc(C(F)(F)F)cc1)[C@@H](O)c1ccc(Oc2ccccc2)cc1)c1ccc(F)c2ccccc12 (racemic) [Example 209, N-((1RS,2SR)-2-hydroxy-2-(4-phenoxyphenyl)-1-((4-(trifluoromethyl)phenyl)methyl)ethyl)-4-fluoro-1-naphthalenecarboxamide] | 205 to 210 °C
27 | O=C(CCc1ccccc1)N[C@H](Cc1ccc(C(F)(F)F)cc1)[C@@H](O)c1ccc(Oc2ccccc2)cc1 (racemic) [Example 211, N-((1RS,2SR)-2-hydroxy-2-(4-phenoxyphenyl)-1-((4-(trifluoromethyl)phenyl)methyl)ethyl)-3-phenylpropanamide] | 133 to 134 °C
28 | O=C(N[C@H](Cc1ccc(F)cc1)[C@@H](O)c1ccc(C(F)(F)F)cc1)c1cccc2ccccc12 (racemic) [Example 212, N-((1RS,2SR)-1-((4-fluorophenyl)methyl)-2-hydroxy-2-(4-(trifluoromethyl)phenyl)ethyl)-1-naphthalenecarboxamide] | 207 to 208 °C
29 | O=C(N[C@H](Cc1ccc(F)cc1)[C@@H](O)c1ccc(C(F)(F)F)cc1)c1ccc(F)c2ccccc12 (racemic) [Example 213, 4-fluoro-N-((1RS,2SR)-1-((4-fluorophenyl)methyl)-2-hydroxy-2-(4-(trifluoromethyl)phenyl)ethyl)-1-naphthalenecarboxamide] | 235 to 236 °C
